One assay deals with T1, human OX2 receptor (Homo sapiens, UniProt O43614).
T1 sequence (O43614 1-444): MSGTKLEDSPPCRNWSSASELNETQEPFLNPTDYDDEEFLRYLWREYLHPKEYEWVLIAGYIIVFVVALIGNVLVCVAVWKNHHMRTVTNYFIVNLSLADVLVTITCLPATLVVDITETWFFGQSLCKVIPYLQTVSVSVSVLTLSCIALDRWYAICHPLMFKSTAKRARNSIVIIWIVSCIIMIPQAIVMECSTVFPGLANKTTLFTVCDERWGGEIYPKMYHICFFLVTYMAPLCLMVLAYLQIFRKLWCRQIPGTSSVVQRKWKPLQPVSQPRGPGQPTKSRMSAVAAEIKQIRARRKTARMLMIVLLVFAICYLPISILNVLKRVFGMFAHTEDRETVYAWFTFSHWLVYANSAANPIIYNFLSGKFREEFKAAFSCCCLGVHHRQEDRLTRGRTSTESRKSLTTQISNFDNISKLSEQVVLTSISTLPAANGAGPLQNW
As to the kind of experiment: Calcium mobilization Ke assay, OX2. In kind it is cell-based. To be noted: for inhibition at 10 µM: read-out: Ke (OX2, nM) column: inhibition at 10 μM final concentration. On the technique in general: Calcium assays in cells follow changes in intracellular calcium, usually with a dye or a luminescent sensor.

The target in another assay is T2, human OX1 receptor (Homo sapiens, UniProt O43613).
T2 sequence (O43613 1-425): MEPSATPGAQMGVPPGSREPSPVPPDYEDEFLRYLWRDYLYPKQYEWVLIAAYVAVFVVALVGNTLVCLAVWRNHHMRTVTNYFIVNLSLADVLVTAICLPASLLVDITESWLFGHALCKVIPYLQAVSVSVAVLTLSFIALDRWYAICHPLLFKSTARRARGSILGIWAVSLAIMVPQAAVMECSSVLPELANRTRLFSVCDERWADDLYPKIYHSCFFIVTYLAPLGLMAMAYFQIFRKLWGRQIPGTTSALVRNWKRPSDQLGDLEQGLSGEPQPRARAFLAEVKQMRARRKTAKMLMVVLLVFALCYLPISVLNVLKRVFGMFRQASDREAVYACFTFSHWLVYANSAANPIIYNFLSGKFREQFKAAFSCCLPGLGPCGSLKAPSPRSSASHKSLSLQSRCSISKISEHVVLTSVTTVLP
As to the kind of experiment: Calcium mobilization Ke assay, OX1. The note with it: for OX2/OX1: ratio of Ke values OX2/OX1. The class given is cell-based.

Setting [1] is: Ke (OX1, nM), compound appeared insurmountable during standard assay procedure, incubation increased to 1 hour.

Read-outs that look alike come from different tables or passages of the source.

By Kd is commonly meant the constant that tells how readily two partners part at equilibrium. As for `CCCOc1cc2c(cc1OC)CCN(CC(=O)NCc1ccccc1)C2Cc1ccc2ccccc2c1` (centres unmarked) [Compound 12a, N-Benzyl-2-[6-methoxy-1-(naphthalen-2-ylmethyl)-7-propoxy-1,2,3,4-tetrahydroisoquinolin-2-yl]acetamide], the inhibition at 10 µM at human OX2 receptor was less than 50%. For the same molecule, on human OX1 receptor, the equilibrium dissociation constant (Kd) came out at 121 ± 35 nM and the OX2/OX1 is recorded as greater than 82.6.

Take `CCCOc1cc2c(cc1OC)CCN(CC(=O)NCc1ccccc1)C2Cc1ccc(C)c(C)c1` (centres unmarked) [Compound 12b, N-Benzyl-2-{1-[(3,4-dimethylphenyl)methyl]-6-methoxy-7-propoxy-1,2,3,4-tetrahydroisoquinolin-2-yl}acetamide]: the inhibition at 10 µM at human OX2 receptor was less than 50%. Further, at human OX1 receptor, the Kd came out at 28.8 ± 4.4 nM and the OX2/OX1 is recorded as greater than 347.

Turning to `CCCOc1cc2c(cc1OC)CCN(CC(=O)NCc1ccccc1)C2Cc1ccc(C(C)C)cc1` (centres unmarked) [Compound 12c, N-Benzyl-2-(6-methoxy-1-{[4-(propan-2-yl)phenyl]methyl}-7-propoxy-1,2,3,4-tetrahydroisoquinolin-2-yl)acetamide], the inhibition at 10 µM on human OX2 receptor is less than 50%. Further, at human OX1 receptor, the Kd turned out to be 141 ± 42 nM and the OX2/OX1 was greater than 70.9.

With `CCCOc1cc2c(cc1OC)CCN(CC(=O)NCc1ccccc1)C2Cc1ccc(N(C)C)cc1` (centres unmarked) [Compound 12d, N-Benzyl-2-(1-{[4-(dimethylamino)phenyl]methyl}-6-methoxy-7-propoxy-1,2,3,4-tetrahydroisoquinolin-2-yl)acetamide], the Kd on human OX2 receptor was greater than 10000 nM. In addition, on human OX1 receptor, the dissociation constant (Kd) turned out to be 173 ± 5 nM and the OX2/OX1 is listed as greater than 58.

Turning to `CCCOc1cc2c(cc1OC)CCN(CC(=O)NCc1ccccc1)C2Cc1cccc(N(C)C)c1` (centres unmarked) [Compound 12f, N-Benzyl-2-(1-{[3-(dimethylamino)phenyl]methyl}-6-methoxy-7-propoxy-1,2,3,4-tetrahydroisoquinolin-2-yl)acetamide], on human OX2 receptor, the inhibition at 10 µM is less than 50%. At human OX1 receptor, the Kd was 20.6 ± 2.8 nM and the OX2/OX1 is listed as greater than 485.

Take `CCCOc1cc2c(cc1OC)CCN(CC(=O)NCc1ccccc1)C2Cc1ccc(OCc2ccccn2)c(OC)c1` (centres unmarked) [Compound 12g, N-Benzyl-2-(6-methoxy-1-{[3-methoxy-4-(pyridin-2-ylmethoxy)phenyl]methyl}-7-propoxy-1,2,3,4-tetrahydroisoquinolin-2-yl)acetamide]: the Kd on human OX2 receptor is greater than 10000 nM. At human OX1 receptor, the dissociation constant (Kd) stood at 96.4 ± 34 nM and the OX2/OX1 is greater than 104. Further, the “selectivity over OX2” value at human OX1 receptor (OX1 over OX2, calcium mobilization assays) is greater than 100 fold.

For the molecule `COc1cc2c(cc1OCC(F)(F)F)C(Cc1ccc3ccccc3c1)N(CC(=O)NCc1cccnc1)CC2` (centres unmarked) [Compound 15a, 2-[6-Methoxy-1-(naphthalen-2-ylmethyl)-7-(2,2,2-trifluoroethoxy)-1,2,3,4-tetrahydroisoquinolin-2-yl]-N-(pyridin-3-ylmethyl)acetamide], the equilibrium dissociation constant (Kd) was determined as 1750 ± 230 nM at human OX2 receptor and 29.5 ± 2.2 nM at human OX1 receptor. Moreover, at human OX1 receptor, the OX2/OX1 is recorded as 59.

As for `COc1cc2c(cc1OCC(F)(F)F)C(Cc1ccc(C)c(C)c1)N(CC(=O)NCc1cccnc1)CC2` (centres unmarked) [Compound 15b, 2-{1-[(3,4-Dimethylphenyl)methyl]-6-methoxy-7-(2,2,2-trifluoroethoxy)-1,2,3,4-tetrahydroisoquinolin-2-yl}-N-(pyridin-3-ylmethyl)acetamide], the values for the equilibrium dissociation constant (Kd) at human OX2 receptor and at human OX1 receptor were 1360 ± 150 nM and 20.4 ± 2.9 nM, respectively. Moreover, the OX2/OX1 at human OX1 receptor is 67.

With `COc1cc2c(cc1OCC(F)(F)F)C(Cc1ccccn1)N(CC(=O)NCc1ccccc1)CC2` (centres unmarked) [Compound 19a, N-Benzyl-2-[6-methoxy-1-(pyridin-2-ylmethyl)-7-(2,2,2-trifluoroethoxy)-1,2,3,4-tetrahydroisoquinolin-2-yl]acetamide], the inhibition at 10 µM at human OX2 receptor was less than 50%. Also, the equilibrium dissociation constant (Kd) at human OX1 receptor (setting [1]) worked out at 884 ± 70 nM. For the same molecule, the OX2/OX1 at human OX1 receptor was greater than 11.

For `COc1cc2c(cc1OCC(F)(F)F)C(Cc1cccnc1)N(CC(=O)NCc1ccccc1)CC2` (centres unmarked) [Compound 19b, N-Benzyl-2-[6-methoxy-1-(pyridin-3-ylmethyl)-7-(2,2,2-trifluoroethoxy)-1,2,3,4-tetrahydroisoquinolin-2-yl]acetamide], the inhibition at 10 µM at human OX2 receptor is less than 50%. Besides, the dissociation constant (Kd) at human OX1 receptor (setting [1]) was greater than 10000 nM.

For the molecule `COc1cc2c(cc1OCC(F)(F)F)C(Cc1ccncc1)N(CC(=O)NCc1ccccc1)CC2` (centres unmarked) [Compound 19c, N-Benzyl-2-[6-methoxy-1-(pyridin-4-ylmethyl)-7-(2,2,2-trifluoroethoxy)-1,2,3,4-tetrahydroisoquinolin-2-yl]acetamide], on human OX2 receptor, the inhibition at 10 µM is less than 50%. The Kd on human OX1 receptor (setting [1]) amounted to 1860 nM. In addition, the OX2/OX1 on human OX1 receptor is reported as greater than 5.4.

On to `COc1cc(CC2c3cc(OS(C)(=O)=O)c(OC)cc3CCN2CC(=O)NCc2ccccc2)ccc1OCc1ccccc1` (centres unmarked) [Compound 25a, 2-[(Benzylcarbamoyl)methyl]-1-{[4-(benzyloxy)-3-methoxyphenyl]methyl}-6-methoxy-1,2,3,4-tetrahydroisoquinolin-7-yl methanesulfonate], for which the inhibition at 10 µM at human OX2 receptor was less than 50%. For the same molecule, at human OX1 receptor, the Kd amounted to 43 ± 18 nM and the OX2/OX1 is reported as greater than 232.

`CCCCOc1ccc(CC2c3cc(OS(C)(=O)=O)c(OC)cc3CCN2CC(=O)NCc2ccccc2)cc1OC` (centres unmarked) [Compound 25b, 2-[(Benzylcarbamoyl)methyl]-1-[(4-butoxy-3-methoxyphenyl)methyl]-6-methoxy-1,2,3,4-tetrahydroisoquinolin-7-yl methanesulfonate]: the Kd at human OX2 receptor came out at 1200 nM. In addition, on human OX1 receptor, the equilibrium dissociation constant (Kd) worked out at 5.24 ± 1 nM and the OX2/OX1 is 229.

On to `COc1cc2c(cc1N)C(Cc1ccc(OC)c(OC)c1)N(CC(=O)NCc1ccccc1)CC2` (centres unmarked) [Compound 33, 2-{7-Amino-1-[(3,4-dimethoxyphenyl)methyl]-6-methoxy-1,2,3,4-tetrahydroisoquinolin-2-yl}-N-benzylacetamide], for which the Kd on human OX2 receptor is greater than 10000 nM. At human OX1 receptor, the Kd turned out to be 494 ± 32 nM and the OX2/OX1 is greater than 20.

As to `COc1ccc(CC2c3cc(N(C)C)c(OC)cc3CCN2CC(=O)NCc2ccccc2)cc1OC` (centres unmarked) [Compound 34a, N-Benzyl-2-{1-[(3,4-dimethoxyphenyl)methyl]-7-(dimethylamino)-6-methoxy-1,2,3,4-tetrahydroisoquinolin-2-yl}acetamide], on human OX2 receptor, the Kd was greater than 10000 nM. Also, on human OX1 receptor, the dissociation constant (Kd) is 31.2 ± 3.3 nM and the OX2/OX1 is greater than 321.

With `COc1cc2c(cc1NCc1ccccc1)C(Cc1ccc(OC)c(OC)c1)N(CC(=O)NCc1ccccc1)CC2` (centres unmarked) [Compound 34b, N-Benzyl-2-[7-(benzylamino)-1-[(3,4-dimethoxyphenyl)methyl]-6-methoxy-1,2,3,4-tetrahydroisoquinolin-2-yl]acetamide], at human OX2 receptor, the inhibition at 10 µM was less than 35%. In addition, on human OX1 receptor, the Kd came out at 352 ± 34 nM and the OX2/OX1 is reported as greater than 28.

As to `COc1cc2c(cc1NC(C)=O)C(Cc1ccc(OC)c(OC)c1)N(CC(=O)NCc1ccccc1)CC2` (centres unmarked) [Compound 34c, N-Benzyl-2-{1-[(3,4-dimethoxyphenyl)methyl]-7-acetamido-6-methoxy-1,2,3,4-tetrahydroisoquinolin-2-yl}acetamide], the Kd on human OX2 receptor was greater than 10000 nM. Moreover, at human OX1 receptor, the dissociation constant Kd was determined as 116 ± 44 nM and the OX2/OX1 is greater than 86.

For the molecule `COc1cc2c(cc1NS(C)(=O)=O)C(Cc1ccc(OC)c(OC)c1)N(CC(=O)NCc1ccccc1)CC2` (centres unmarked) [Compound 34d, N-Benzyl-2-{1-[(3,4-dimethoxyphenyl)methyl]-7-methanesulfonamido-6-methoxy-1,2,3,4-tetrahydroisoquinolin-2-yl}acetamide], at human OX2 receptor, the Kd is greater than 10000 nM. At human OX1 receptor, the dissociation constant (Kd) amounted to 128 ± 13 nM and the OX2/OX1 is greater than 78.

Regarding `CCCC(=O)Nc1cc2c(cc1OC)CCN(CC(=O)NCc1ccccc1)C2Cc1ccc(OC)c(OC)c1` (centres unmarked) [Compound 34e, N-{2-[(Benzylcarbamoyl)methyl]-1-[(3,4-dimethoxyphenyl)methyl]-6-methoxy-1,2,3,4-tetrahydroisoquinolin-7-yl}butanamide], the equilibrium dissociation constant (Kd) at human OX2 receptor is greater than 10000 nM. At human OX1 receptor, the Kd turned out to be 689 ± 73 nM and the OX2/OX1 is listed as greater than 14.5.

Regarding `COC(=O)Nc1cc(CC2c3cc(NC(=O)OC)c(OC)cc3CCN2CC(=O)NCc2ccccc2)ccc1OC` (centres unmarked) [Compound 38, Methyl N-{2-[(Benzylcarbamoyl)methyl]-6-methoxy-1-({4-methoxy-3-[(methoxycarbonyl)amino]phenyl}methyl)-1,2,3,4-tetrahydroisoquinolin-7-yl}carbamate], the Kd on human OX2 receptor is 592 ± 170 nM; at human OX1 receptor, greater than 10000 nM.

On to `COc1ccc(CC2c3cc(N(C)C)c(OC)cc3CCN2CC(=O)NCc2ccccc2)cc1N(C)C` (centres unmarked) [Compound 39, N-Benzyl-2-[7-(dimethylamino)-1-{[3-(dimethylamino)-4-methoxyphenyl]methyl}-6-methoxy-1,2,3,4-tetrahydroisoquinolin-2-yl]acetamide], for which, at human OX2 receptor, the Kd is 857 ± 220 nM. Besides, at human OX1 receptor, the Kd is 7.6 ± 2.8 nM and the OX2/OX1 came to 113.

These data come from article PMC6002953 (ACS chemical neuroscience, 2017).
